This is an account of results in patent US20070238700A1, “N-PHENYL-1,1,1-TRIFLUOROMETHANESULFONAMIDE HYDRAZONE DERIVATIVE COMPOUNDS AND THEIR USAGE IN CONTROLLING PARASITES” (priority 2006, published 2007).

Where two headings read alike, the source gives them in different places.

The series concerns Ctenocephalides felis. As to the method: b) Ctenocephalides felis Adulticide Assay: C. felis Single Dose Screen
Mortality of fleas was the primary endpoint in the assay. Fleas were considered dead if they didn't move or were on their sides and unable to walk or right themselves. […] The concentration chosen (1.26 μg/cm^2) was higher than that known to kill 90% of cat fleas (LC90) using the reference compound, permethrin.
The test species was the cat flea (Ctenocephalides felis). The strain used was obtained from external suppliers as pupae and held in the laboratory under testing conditions until the adults had emerged. Fifteen (15) fleas were used in a minimum of four replicates against a single concentration level (approximately 60 fleas). The insects were selected to be in the adult life stage, aged between 3 and 7 days post emergence.
The compounds to be tested were supplied as solids and were prepared in acetone as described below prior to testing. Samples were stored in a refrigerator (5±1° C.) unless otherwise specified.
During the mortality testing, the temperature was maintained at 25±1° C. Humidity was maintained at 75±5%. The base (area=159 mm^2) of a 100 mL glass Erlenmeyer (conical) flask provided the treatment surface. Flasks were pretreated with Coatasil™ glass treatment to maximise bio-availability of test compounds by preventing them from binding to glass the surface. The base of the 100 mL Erlenmeyer flask was treated with 0.5 mL of test sample in acetone and gently swirled. This volume was sufficient to cover the base of the flask. Flasks were left to dry for 24 hours before flea exposure.
Adult cat fleas were placed into a sorting chamber, which allowed fleas to jump into the Erlenmeyer flasks. Fifteen (15) adult cat fleas were collected in each flask. The top of the flasks were then covered in Parafilm™ and small holes were made to allow gas exchange. A 0.5 mL volume of acetone as a solvent control was applied to the base of an Erlenmeyer flask and the testing proceeded in the same manner described above. Cat fleas in the treatment containers were held under testing conditions for 8, 24 and/or 48 hours. Mortality was recorded at 8, 24, 8 and 24, or 24 and 48 hours Pooled 8, 24, 8 and 24, and 24 and 48 hour mortality data were converted to percentages and are summarized by Table 21, below.

In the case of `CC(=O)N(N=C(C)c1cc(Cl)ccc1NS(=O)(=O)C(F)(F)F)c1ccccc1` [Compound 183], the “C. felis Mortality (%) 8 h” value worked out at 2% and the “C. felis Mortality (%) 24 h” value is 22%.

In the case of `CC(=Nn1c(=O)oc2ccccc21)c1cc(Cl)ccc1NS(=O)(=O)C(F)(F)F` [Compound 184, N-[4-Chloro-2-(1-(2(3H)-oxo-benzoxazol-3-yl)imino)ethylphenyl]-trifluoromethanesulfonamide], the “C. felis Mortality (%) 8 h” value turned out to be 2% and the “C. felis Mortality (%) 24 h” value was determined as 12%.

In the case of `CC(=Nn1cccn1)c1cc(Cl)ccc1NS(=O)(=O)C(F)(F)F` [Compound 185], for the setting “8 h, data from laboratory 1”, the “C. felis Mortality (%) 8 h” value is on record as 2%. Besides, the “C. felis Mortality (%) 24 h” value (24 h, data from laboratory 1) is reported as 11%.

Turning to `CC(=Nn1cnc2ccccc2c1=O)c1cc(Cl)ccc1NS(=O)(=O)C(F)(F)F` [Compound 186, N-[4-Chloro-2-(1-{4(3)-oxo-quinazolin-3-yl}imino)ethylphenyl]-trifluoromethanesulfonamide], the “C. felis Mortality (%) 8 h” value is 2% and the “C. felis Mortality (%) 24 h” value was 12%.

As for `C/C(=N\N1C(=O)NC(C)(C)C1=O)c1cc(Cl)ccc1NS(=O)(=O)C(F)(F)F` [Compound 187], the “C. felis Mortality (%) 8 h” value (8 h, data from laboratory 1) was determined as 5%. Moreover, the “C. felis Mortality (%) 24 h” value (24 h, data from laboratory 1) worked out at 19%.

For the molecule `CC(=Nn1cnc2ccccc21)c1cc(Cl)ccc1NS(=O)(=O)C(F)(F)F` [Compound 188], the “C. felis Mortality (%) 8 h” value (8 h, data from laboratory 1) came out at 2%. Besides, the “C. felis Mortality (%) 24 h” value (24 h, data from laboratory 1) is given as 7%.

On to `CC(=Nn1cc2ccccc2n1)c1cc(Cl)ccc1NS(=O)(=O)C(F)(F)F` [Compound 189], for which, under “8 h, data from laboratory 1”, the “C. felis Mortality (%) 8 h” value came out at 0%. Also, the “C. felis Mortality (%) 24 h” value (24 h, data from laboratory 1) was determined as 2%.

Turning to `CC(=NN(C)c1ncccn1)c1cc(Cl)ccc1NS(=O)(=O)C(F)(F)F` [Compound 190], the “C. felis Mortality (%) 8 h” value worked out at 2% and the “C. felis Mortality (%) 24 h” value is 15%.

`CC(=NN1CCN(C)CC1)c1cc(Cl)ccc1NS(=O)(=O)C(F)(F)F` [Compound 191]: the “C. felis Mortality (%) 8 h” value (8 h, data from laboratory 1) is 2%. The “C. felis Mortality (%) 24 h” value (24 h, data from laboratory 1) came to 48%.

Regarding `CC(=Nn1c(C)n[nH]c1=O)c1cc(Cl)ccc1NS(=O)(=O)C(F)(F)F` [Compound 192], the “C. felis Mortality (%) 8 h” value (8 h, data from laboratory 1) came to 3%. Moreover, the “C. felis Mortality (%) 24 h” value (24 h, data from laboratory 1) is reported as 5%.

Consider `CC(=Nn1ncc2ccccc21)c1cc(Cl)ccc1NS(=O)(=O)C(F)(F)F` [Compound 193], for which, for the setting “8 h, data from laboratory 1”, the “C. felis Mortality (%) 8 h” value was 2%. For the same molecule, under “24 h, data from laboratory 1”, the “C. felis Mortality (%) 24 h” value is on record as 9%.

As for `CC(=NN(C)c1ccc(Cl)nn1)c1cc(Cl)ccc1NS(=O)(=O)C(F)(F)F` [Compound 194], where the note is “8 h, data from laboratory 1”, the “C. felis Mortality (%) 8 h” value was 0%. Moreover, the “C. felis Mortality (%) 24 h” value (24 h, data from laboratory 1) is given as 5%.

As for `CC(=NN(C)c1ccccn1)c1cc(Cl)ccc1NS(=O)(=O)C(F)(F)F` [Compound 195], where the note is “8 h, data from laboratory 1”, the “C. felis Mortality (%) 8 h” value stood at 2%. Further, under “24 h, data from laboratory 1”, the “C. felis Mortality (%) 24 h” value stood at 30%.

Consider `CC(=NN(C)c1ccc(Cl)cn1)c1cc(Cl)ccc1NS(=O)(=O)C(F)(F)F` [Compound 196], for which the “C. felis Mortality (%) 8 h” value (8 h, data from laboratory 1) is 3%. For the same molecule, the “C. felis Mortality (%) 24 h” value (24 h, data from laboratory 1) is on record as 32%.

Consider `CC(=NN(C)c1cccc(Cl)n1)c1cc(Cl)ccc1NS(=O)(=O)C(F)(F)F` [Compound 197], for which the “C. felis Mortality (%) 8 h” value (8 h, data from laboratory 1) amounted to 7%. Also, under “24 h, data from laboratory 1”, the “C. felis Mortality (%) 24 h” value turned out to be 23%.

Consider `CC(=NN(C)c1ccc2ccccc2n1)c1cc(Cl)ccc1NS(=O)(=O)C(F)(F)F` [Compound 198], for which, where the note is “8 h, data from laboratory 1”, the “C. felis Mortality (%) 8 h” value amounted to 2%. Where the note is “24 h, data from laboratory 1”, the “C. felis Mortality (%) 24 h” value amounted to 25%.

Consider `CC(=Nn1c(=O)[nH]nc(C)c1=O)c1cc(Cl)ccc1NS(=O)(=O)C(F)(F)F` [Compound 199], for which the “C. felis Mortality (%) 8 h” value (8 h, data from laboratory 1) is 3%. Further, the “C. felis Mortality (%) 24 h” value (24 h, data from laboratory 1) amounted to 3%.

As to `CCCN(N=C(C)c1cc(Cl)ccc1NS(=O)(=O)C(F)(F)F)c1cccc(Cl)c1Cl` [Compound 200], for the setting “8 h, data from laboratory 1”, the “C. felis Mortality (%) 8 h” value was 2%. Besides, the “C. felis Mortality (%) 24 h” value (24 h, data from laboratory 1) is 58%.

Consider `CC(=Nn1c(C)nc2ccccc2c1=O)c1cc(Cl)ccc1NS(=O)(=O)C(F)(F)F` [Compound 201], for which the “C. felis Mortality (%) 8 h” value (8 h, data from laboratory 1) is on record as 2%. Further, the “C. felis Mortality (%) 24 h” value (24 h, data from laboratory 1) came out at 10%.

Turning to `CC(=NN(CCC#N)CCC#N)c1cc(Cl)ccc1NS(=O)(=O)C(F)(F)F` [Compound 202], the “C. felis Mortality (%) 8 h” value (8 h, data from laboratory 1) is listed as 3%. Further, the “C. felis Mortality (%) 24 h” value (24 h, data from laboratory 1) came to 24%.

As to `CC(=NN(C)c1ccccc1C(F)(F)F)c1cc(Cl)ccc1NS(=O)(=O)C(F)(F)F` [Compound 204], the “C. felis Mortality (%) 8 h” value (8 h, data from laboratory 1) is given as 6%. The “C. felis Mortality (%) 24 h” value (24 h, data from laboratory 1) was found to be 11%.

As for `CN(N=C1CCc2cccc(NS(=O)(=O)C(F)(F)F)c21)c1ccccc1` [Compound 205], the “C. felis Mortality (%) 8 h” value (8 h, data from laboratory 1) came out at 12%. Also, where the note is “24 h, data from laboratory 1”, the “C. felis Mortality (%) 24 h” value was found to be 13%.

Consider `CC(=NN(C)c1cnccn1)c1cc(Cl)ccc1NS(=O)(=O)C(F)(F)F` [Compound 206], for which the “C. felis Mortality (%) 8 h” value is 7% and the “C. felis Mortality (%) 24 h” value was determined as 12%.

On to `C/C(=N\NC(=O)Nc1ccc(OC(F)(F)F)cc1)c1cc(Cl)ccc1NS(=O)(=O)C(F)(F)F` [Compound 207], for which the “C. felis Mortality (%) 8 h” value (8 h, data from laboratory 1) was found to be 5%. Besides, for the setting “24 h, data from laboratory 1”, the “C. felis Mortality (%) 24 h” value is 8%.

Turning to `C/C(=N\NC(=O)Nc1ccc(C(F)(F)F)cc1)c1cc(Cl)ccc1NS(=O)(=O)C(F)(F)F` [Compound 208], for the setting “8 h, data from laboratory 1”, the “C. felis Mortality (%) 8 h” value is listed as 8%. Where the note is “24 h, data from laboratory 1”, the “C. felis Mortality (%) 24 h” value turned out to be 18%.

For the molecule `C/C(=N\N(C)c1nccc2ccccc12)c1cc(Cl)ccc1NS(=O)(=O)C(F)(F)F` [Compound 209], the “C. felis Mortality (%) 8 h” value (8 h, data from laboratory 1) is given as 7%. Moreover, under “24 h, data from laboratory 1”, the “C. felis Mortality (%) 24 h” value was 18%.

For the molecule `C/C(=N\N(C)c1cnc2ccccc2n1)c1cc(Cl)ccc1NS(=O)(=O)C(F)(F)F` [Compound 210], the “C. felis Mortality (%) 8 h” value (8 h, data from laboratory 1) is reported as 4%. The “C. felis Mortality (%) 24 h” value (24 h, data from laboratory 1) came to 17%.

Consider `CCN(N=C(C)c1cc(Cl)ccc1NS(=O)(=O)C(F)(F)F)C1CCCC1` [Compound 212], for which the “C. felis Mortality (%) 8 h” value was 7% and the “C. felis Mortality (%) 24 h” value stood at 59%.

As to `CCC(=NN(CC)C1CCCC1)c1cc(Cl)ccc1NS(=O)(=O)C(F)(F)F` [Compound 214], under “8 h, data from laboratory 1”, the “C. felis Mortality (%) 8 h” value was 7%. Further, the “C. felis Mortality (%) 24 h” value (24 h, data from laboratory 1) was determined as 61%.

With `CCN(N=C(C)c1cc(Cl)ccc1NS(=O)(=O)C(F)(F)F)C1CCCCC1` [Compound 216], the “C. felis Mortality (%) 8 h” value (8 h, data from laboratory 1) was 0%. The “C. felis Mortality (%) 24 h” value (24 h, data from laboratory 1) is 52%.

Regarding `CC/C(=N\N(C)C1CCCCC1)c1cc(Cl)ccc1NS(=O)(=O)C(F)(F)F` [Compound 217], the “C. felis Mortality (%) 8 h” value (8 h, data from laboratory 1) was 3%. Moreover, the “C. felis Mortality (%) 24 h” value (24 h, data from laboratory 1) was determined as 48%.

As to `CCC(=NN(CC)C1CCCCC1)c1cc(Cl)ccc1NS(=O)(=O)C(F)(F)F` [Compound 218], the “C. felis Mortality (%) 8 h” value (8 h, data from laboratory 1) worked out at 5%. Moreover, for the setting “24 h, data from laboratory 1”, the “C. felis Mortality (%) 24 h” value was 62%.

As for `CN(N=C1CCCc2cccc(NS(=O)(=O)C(F)(F)F)c21)c1ccccc1` [Compound 219, N-[8-(N′-methyl-N′-phenyl)hydrazono-5,6,7,8-tetrahydro-naphthalen-1-yl]-trifluoromethanesulfonamide], the “C. felis Mortality (%) 8 h” value was found to be 0% and the “C. felis Mortality (%) 24 h” value is recorded as 2%.

Regarding `CCC(=O)N(CCC#N)/N=C(\C)c1cc(Cl)ccc1NS(=O)(=O)C(F)(F)F` [Compound 225], the “C. felis Mortality (%) 8 h” value (8 h, data from laboratory 1) is recorded as 2%. Where the note is “24 h, data from laboratory 1”, the “C. felis Mortality (%) 24 h” value is on record as 73%.

Consider `O=S(=O)(Nc1ccc(Cl)cc1C1=NN(c2ccccc2)CC1)C(F)(F)F` [Compound 226], for which the “C. felis Mortality (%) 8 h” value (8 h, data from laboratory 1) was determined as 0%. The “C. felis Mortality (%) 24 h” value (24 h, data from laboratory 1) is given as 28%.
